Laboratory results as given in PubChem BioAssay AID1963852 (Molecular Pharmacology Branch, DTP, NCI, 2024).

Test system: 282377-053-R-J1-PDC complex spheroid viability
Experiment: Anticancer human tumor 282377-053-R-J1-PDC patient-derived colon adenocarcinoma cell line growth inhibition [POLQ]
Conditions: for IC50: curve of first compound; for viability, T/C: stronger effect = lower value
Procedure, shortened: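 Growth inhibition in 3D: complex spheroids (tumor PDC, HUVEC, MSC) treated with POLQ inhibitor combinations; where Cmax unknown, highest tested concentration 10 microM, except SN-38 at 1 microM.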

[1] = second compound 0.0316 µM, first compound 0.0316 µM
[2] = second compound 0.0316 µM, first compound 0.1 µM
[3] = second compound 0.0316 µM, first compound 0.316 µM
[4] = second compound 0.0316 µM, first compound 1 µM
[5] = second compound 0.0316 µM, first compound 3.16 µM
[6] = second compound 0.0316 µM, first compound 10 µM
[7] = second compound 0.1 µM, first compound 0.0316 µM
[8] = second compound 0.1 µM, first compound 0.1 µM
[9] = second compound 0.1 µM, first compound 0.316 µM
[10] = second compound 0.1 µM, first compound 1 µM
[11] = second compound 0.1 µM, first compound 3.16 µM
[12] = second compound 0.1 µM, first compound 10 µM
[13] = second compound 0.316 µM, first compound 0.0316 µM
[14] = second compound 0.316 µM, first compound 0.1 µM
[15] = second compound 0.316 µM, first compound 0.316 µM
[16] = second compound 0.316 µM, first compound 1 µM
[17] = second compound 0.316 µM, first compound 3.16 µM
[18] = second compound 0.316 µM, first compound 10 µM
[19] = second compound 1 µM, first compound 0.0316 µM
[20] = second compound 1 µM, first compound 0.1 µM
[21] = second compound 1 µM, first compound 0.316 µM
[22] = second compound 1 µM, first compound 1 µM
[23] = second compound 1 µM, first compound 3.16 µM
[24] = second compound 1 µM, first compound 10 µM
[25] = second compound 3.16 µM, first compound 0.0316 µM
[26] = second compound 3.16 µM, first compound 0.1 µM
[27] = second compound 3.16 µM, first compound 0.316 µM
[28] = second compound 3.16 µM, first compound 1 µM
[29] = second compound 3.16 µM, first compound 3.16 µM
[30] = second compound 3.16 µM, first compound 10 µM
[31] = second compound 10 µM, first compound 0.0316 µM
[32] = second compound 10 µM, first compound 0.1 µM
[33] = second compound 10 µM, first compound 0.316 µM
[34] = second compound 10 µM, first compound 1 µM
[35] = second compound 10 µM, first compound 3.16 µM
[36] = second compound 10 µM, first compound 10 µM
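Note: spheroids exposed to compounds for seven days.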
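Throughout, for viability, T/C: 100% = DMSO vehicle control viability.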

## CC(=O)O[C@H]1C(=O)[C@@]2(C)[C@H]([C@H](OC(=O)c3ccccc3)[C@]3(O)C[C@H](OC(=O)[C@H](O)[C@@H](NC(=O)c4ccccc4)c4ccccc4)C(C)=C1C3(C)C)[C@]1(OC(C)=O)CO[C@@H]1C[C@@H]2O + COC1C(OC(N)=O)C(O)C(Oc2ccc3c(O)c(NC(=O)c4ccc(O)c(CC=C(C)C)c4)c(=O)oc3c2C)OC1(C)C
Second compound 0.0316 µM
  IC50: < 9.49 nM
Second compound 0.1 µM
  IC50: 10.4 nM
Second compound 0.316 µM
  IC50: 11.5 nM
Second compound 1 µM
  IC50: 11.4 nM
Second compound 3.16 µM
  IC50: 12.6 nM
Second compound 10 µM
  IC50: 13.1 nM
Second compound 0.0316 µM, first compound 0.00949 µM
  viability, T/C: 39.3%
Second compound 0.0316 µM, first compound 0.03 µM
  viability, T/C: 18.9%
Second compound 0.0316 µM, first compound 0.0949 µM
  viability, T/C: 19.9%
Second compound 0.0316 µM, first compound 0.3 µM
  viability, T/C: 20.6%
Second compound 0.0316 µM, first compound 0.949 µM
  viability, T/C: 19.5%
Second compound 0.0316 µM, first compound 3 µM
  viability, T/C: 24.1%
Second compound 0.1 µM, first compound 0.00949 µM
  viability, T/C: 52.5%
Second compound 0.1 µM, first compound 0.03 µM
  viability, T/C: 21.9%
Second compound 0.1 µM, first compound 0.0949 µM
  viability, T/C: 20.9%
Second compound 0.1 µM, first compound 0.3 µM
  viability, T/C: 18.1%
Second compound 0.1 µM, first compound 0.949 µM
  viability, T/C: 22.1%
Second compound 0.1 µM, first compound 3 µM
  viability, T/C: 25.3%
Second compound 0.316 µM, first compound 0.00949 µM
  viability, T/C: 55.7%
Second compound 0.316 µM, first compound 0.03 µM
  viability, T/C: 20.8%
Second compound 0.316 µM, first compound 0.0949 µM
  viability, T/C: 19.9%
Second compound 0.316 µM, first compound 0.3 µM
  viability, T/C: 20.7%
Second compound 0.316 µM, first compound 0.949 µM
  viability, T/C: 22.9%
Second compound 0.316 µM, first compound 3 µM
  viability, T/C: 20.6%
Second compound 1 µM, first compound 0.00949 µM
  viability, T/C: 55.6%
Second compound 1 µM, first compound 0.03 µM
  viability, T/C: 20.8%
Second compound 1 µM, first compound 0.0949 µM
  viability, T/C: 16.8%
Second compound 1 µM, first compound 0.3 µM
  viability, T/C: 17.1%
Second compound 1 µM, first compound 0.949 µM
  viability, T/C: 22.2%
Second compound 1 µM, first compound 3 µM
  viability, T/C: 27.9%
Second compound 3.16 µM, first compound 0.00949 µM
  viability, T/C: 58.5%
Second compound 3.16 µM, first compound 0.03 µM
  viability, T/C: 23.8%
Second compound 3.16 µM, first compound 0.0949 µM
  viability, T/C: 15.8%
Second compound 3.16 µM, first compound 0.3 µM
  viability, T/C: 18.2%
Second compound 3.16 µM, first compound 0.949 µM
  viability, T/C: 23.1%
Second compound 3.16 µM, first compound 3 µM
  viability, T/C: 29.4%
Second compound 10 µM, first compound 0.00949 µM
  viability, T/C: 61.4%
Second compound 10 µM, first compound 0.03 µM
  viability, T/C: 20.9%
Second compound 10 µM, first compound 0.0949 µM
  viability, T/C: 16.9%
Second compound 10 µM, first compound 0.3 µM
  viability, T/C: 20.7%
Second compound 10 µM, first compound 0.949 µM
  viability, T/C: 24.5%
Second compound 10 µM, first compound 3 µM
  viability, T/C: 20.2%

## COc1cccc2c1C(=O)c1c(O)c3c(c(O)c1C2=O)CC(O)(C(=O)CO)CC3OC1CC(N)C(O)C(C)O1 (stereo unspecified) + COC1C(OC(N)=O)C(O)C(Oc2ccc3c(O)c(NC(=O)c4ccc(O)c(CC=C(C)C)c4)c(=O)oc3c2C)OC1(C)C
Second compound 0.0316 µM
  IC50: 273 nM
Second compound 0.1 µM
  IC50: 323 nM
Second compound 0.316 µM
  IC50: 284 nM
Second compound 1 µM
  IC50: 386 nM
Second compound 3.16 µM
  IC50: 289 nM
Second compound 10 µM
  IC50: 378 nM
[1]
  viability, T/C: 92.3%
[2]
  viability, T/C: 81%
[3]
  viability, T/C: 43.9%
[4]
  viability, T/C: 17.5%
[5]
  viability, T/C: 1.11%
[6]
  viability, T/C: 2.81%
[7]
  viability, T/C: 117%
[8]
  viability, T/C: 82.7%
[9]
  viability, T/C: 57.6%
[10]
  viability, T/C: 16.5%
[11]
  viability, T/C: 0.71%
[12]
  viability, T/C: 2.97%
[13]
  viability, T/C: 95.5%
[14]
  viability, T/C: 84.9%
[15]
  viability, T/C: 44.9%
[16]
  viability, T/C: 16.1%
[17]
  viability, T/C: 0.67%
[18]
  viability, T/C: 2.69%
[19]
  viability, T/C: 97.1%
[20]
  viability, T/C: 88.6%
[21]
  viability, T/C: 58%
[22]
  viability, T/C: 14.3%
[23]
  viability, T/C: 1.36%
[24]
  viability, T/C: 2.91%
[25]
  viability, T/C: 90.2%
[26]
  viability, T/C: 88.9%
[27]
  viability, T/C: 44.8%
[28]
  viability, T/C: 13.7%
[29]
  viability, T/C: 0.83%
[30]
  viability, T/C: 2.03%
[31]
  viability, T/C: 84.4%
[32]
  viability, T/C: 76.8%
[33]
  viability, T/C: 56.8%
[34]
  viability, T/C: 16.3%
[35]
  viability, T/C: 2.09%
[36]
  viability, T/C: 3.61%

## O=c1[nH]cc(F)c(=O)[nH]1 + COC1C(OC(N)=O)C(O)C(Oc2ccc3c(O)c(NC(=O)c4ccc(O)c(CC=C(C)C)c4)c(=O)oc3c2C)OC1(C)C
Second compound 0.0316 µM
  IC50: > 10000 nM
Second compound 0.1 µM
  IC50: > 10000 nM
Second compound 0.316 µM
  IC50: > 10000 nM
Second compound 1 µM
  IC50: > 10000 nM
Second compound 3.16 µM
  IC50: > 10000 nM
Second compound 10 µM
  IC50: > 10000 nM
[1]
  viability, T/C: 112%
[2]
  viability, T/C: 89%
[3]
  viability, T/C: 104%
[4]
  viability, T/C: 92%
[5]
  viability, T/C: 74.6%
[6]
  viability, T/C: 66.9%
[7]
  viability, T/C: 109%
[8]
  viability, T/C: 107%
[9]
  viability, T/C: 90.9%
[10]
  viability, T/C: 89.7%
[11]
  viability, T/C: 72.1%
[12]
  viability, T/C: 71%
[13]
  viability, T/C: 112%
[14]
  viability, T/C: 125%
[15]
  viability, T/C: 97.1%
[16]
  viability, T/C: 81.5%
[17]
  viability, T/C: 77.7%
[18]
  viability, T/C: 71.1%
[19]
  viability, T/C: 112%
[20]
  viability, T/C: 97.9%
[21]
  viability, T/C: 94.4%
[22]
  viability, T/C: 86.4%
[23]
  viability, T/C: 79.6%
[24]
  viability, T/C: 71.2%
[25]
  viability, T/C: 102%
[26]
  viability, T/C: 101%
[27]
  viability, T/C: 88.1%
[28]
  viability, T/C: 100%
[29]
  viability, T/C: 80.7%
[30]
  viability, T/C: 66.8%
[31]
  viability, T/C: 105%
[32]
  viability, T/C: 103%
[33]
  viability, T/C: 115%
[34]
  viability, T/C: 98%
[35]
  viability, T/C: 82.2%
[36]
  viability, T/C: 63.5%
